Test results reported in PubChem BioAssay AID1963984 (Molecular Pharmacology Branch, DTP, NCI, 2024).

System: 233499-124-R-J3-PDC spheroids with HUVEC/MSC, viability
Assay: Anticancer human tumor 233499-124-R-J3-PDC patient-derived colon adenocarcinoma cell line growth inhibition [PI3K]
Details: for IC50: curve of first compound; for viability, T/C: stronger effect = lower value
Method in brief: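 Multi-cell spheroids combine tumor cells with HUVEC and human MSCs, treated with targeted agents alone or with inavolisib, alpelisib, duvelisib or copanlisib. Concentrations fall in half-log steps from at or near clinical Cmax, or from 10 microM where Cmax is unknown; viability read-out.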

[1] = second compound 0.0316 µM, first compound 0.0316 µM
[2] = second compound 0.0316 µM, first compound 0.1 µM
[3] = second compound 0.0316 µM, first compound 0.316 µM
[4] = second compound 0.0316 µM, first compound 1 µM
[5] = second compound 0.0316 µM, first compound 3.16 µM
[6] = second compound 0.0316 µM, first compound 10 µM
[7] = second compound 0.1 µM, first compound 0.0316 µM
[8] = second compound 0.1 µM, first compound 0.1 µM
[9] = second compound 0.1 µM, first compound 0.316 µM
[10] = second compound 0.1 µM, first compound 1 µM
[11] = second compound 0.1 µM, first compound 3.16 µM
[12] = second compound 0.1 µM, first compound 10 µM
[13] = second compound 0.316 µM, first compound 0.0316 µM
[14] = second compound 0.316 µM, first compound 0.1 µM
[15] = second compound 0.316 µM, first compound 0.316 µM
[16] = second compound 0.316 µM, first compound 1 µM
[17] = second compound 0.316 µM, first compound 3.16 µM
[18] = second compound 0.316 µM, first compound 10 µM
[19] = second compound 1 µM, first compound 0.0316 µM
[20] = second compound 1 µM, first compound 0.1 µM
[21] = second compound 1 µM, first compound 0.316 µM
[22] = second compound 1 µM, first compound 1 µM
[23] = second compound 1 µM, first compound 3.16 µM
[24] = second compound 1 µM, first compound 10 µM
[25] = second compound 3.16 µM, first compound 0.0316 µM
[26] = second compound 3.16 µM, first compound 0.1 µM
[27] = second compound 3.16 µM, first compound 0.316 µM
[28] = second compound 3.16 µM, first compound 1 µM
[29] = second compound 3.16 µM, first compound 3.16 µM
[30] = second compound 3.16 µM, first compound 10 µM
[31] = second compound 10 µM, first compound 0.0316 µM
[32] = second compound 10 µM, first compound 0.1 µM
[33] = second compound 10 µM, first compound 0.316 µM
[34] = second compound 10 µM, first compound 1 µM
[35] = second compound 10 µM, first compound 3.16 µM
[36] = second compound 10 µM, first compound 10 µM
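Also: spheroids exposed to agents for seven days before readout.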
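For viability, T/C in this document: percent viability relative to DMSO vehicle control taken as 100%.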

## CCCS(=O)(=O)Nc1ccc(F)c(C(=O)c2c[nH]c3ncc(-c4ccc(Cl)cc4)cc23)c1F + Cc1nc(NC(=O)N2CCCC2C(N)=O)sc1-c1ccnc(C(C)(C)C(F)(F)F)c1
Second compound 0.0316 µM
  IC50: 5.29 µM
Second compound 0.1 µM
  IC50: 4.82 µM
Second compound 0.316 µM
  IC50: 4.83 µM
Second compound 1 µM
  IC50: 4.7 µM
Second compound 3.16 µM
  IC50: 3.57 µM
Second compound 10 µM
  IC50: < 0.0316 µM
[1]
  viability, T/C: 119%
[2]
  viability, T/C: 98.2%
[3]
  viability, T/C: 87.2%
[4]
  viability, T/C: 110%
[5]
  viability, T/C: 89%
[6]
  viability, T/C: 1.84%
[7]
  viability, T/C: 97%
[8]
  viability, T/C: 109%
[9]
  viability, T/C: 84.8%
[10]
  viability, T/C: 92.5%
[11]
  viability, T/C: 77.7%
[12]
  viability, T/C: 4.22%
[13]
  viability, T/C: 98.9%
[14]
  viability, T/C: 81.7%
[15]
  viability, T/C: 84.5%
[16]
  viability, T/C: 98.1%
[17]
  viability, T/C: 78.2%
[18]
  viability, T/C: 1.3%
[19]
  viability, T/C: 82.8%
[20]
  viability, T/C: 71.8%
[21]
  viability, T/C: 86.3%
[22]
  viability, T/C: 67%
[23]
  viability, T/C: 75.3%
[24]
  viability, T/C: 1.86%
[25]
  viability, T/C: 55.8%
[26]
  viability, T/C: 59.1%
[27]
  viability, T/C: 49.1%
[28]
  viability, T/C: 53.9%
[29]
  viability, T/C: 59.4%
[30]
  viability, T/C: 4.28%
[31]
  viability, T/C: 34.1%
[32]
  viability, T/C: 35.4%
[33]
  viability, T/C: 50.9%
[34]
  viability, T/C: 29.8%
[35]
  viability, T/C: 22.8%
[36]
  viability, T/C: 0.89%

## C[C@@H](NC(=O)c1ncnc(N)c1Cl)c1ncc(C(=O)Nc2cc(C(F)(F)F)c(Cl)cn2)s1 + Cc1nc(NC(=O)N2CCCC2C(N)=O)sc1-c1ccnc(C(C)(C)C(F)(F)F)c1
Second compound 0.0316 µM
  IC50: > 10 µM
Second compound 0.1 µM
  IC50: > 10 µM
Second compound 0.316 µM
  IC50: > 10 µM
Second compound 1 µM
  IC50: 9.68 µM
Second compound 3.16 µM
  IC50: 0.458 µM
Second compound 10 µM
  IC50: < 0.0316 µM
[1]
  viability, T/C: 101%
[2]
  viability, T/C: 75.5%
[3]
  viability, T/C: 113%
[4]
  viability, T/C: 136%
[5]
  viability, T/C: 112%
[6]
  viability, T/C: 106%
[7]
  viability, T/C: 109%
[8]
  viability, T/C: 90.3%
[9]
  viability, T/C: 104%
[10]
  viability, T/C: 110%
[11]
  viability, T/C: 104%
[12]
  viability, T/C: 54.8%
[13]
  viability, T/C: 111%
[14]
  viability, T/C: 104%
[15]
  viability, T/C: 87.7%
[16]
  viability, T/C: 63.9%
[17]
  viability, T/C: 92.8%
[18]
  viability, T/C: 79.4%
[19]
  viability, T/C: 90.4%
[20]
  viability, T/C: 93.3%
[21]
  viability, T/C: 69%
[22]
  viability, T/C: 94.4%
[23]
  viability, T/C: 99.4%
[24]
  viability, T/C: 48.8%
[25]
  viability, T/C: 51.5%
[26]
  viability, T/C: 71.5%
[27]
  viability, T/C: 52%
[28]
  viability, T/C: 42.5%
[29]
  viability, T/C: 37.9%
[30]
  viability, T/C: 35.8%
[31]
  viability, T/C: 33.1%
[32]
  viability, T/C: 29.2%
[33]
  viability, T/C: 34.1%
[34]
  viability, T/C: 38%
[35]
  viability, T/C: 14.4%
[36]
  viability, T/C: 14%

## Cn1ncnc1[C@H]1c2n[nH]c(=O)c3cc(F)cc(c23)N[C@@H]1c1ccc(F)cc1 + Cc1nc(NC(=O)N2CCCC2C(N)=O)sc1-c1ccnc(C(C)(C)C(F)(F)F)c1
Second compound 0.0316 µM
  IC50: > 0.1 µM
Second compound 0.1 µM
  IC50: > 0.1 µM
Second compound 0.316 µM
  IC50: > 0.1 µM
Second compound 1 µM
  IC50: > 0.1 µM
Second compound 3.16 µM
  IC50: 0.00184 µM
Second compound 10 µM
  IC50: < 0.000316 µM
Second compound 0.0316 µM, first compound 0.000316 µM
  viability, T/C: 101%
Second compound 0.0316 µM, first compound 0.001 µM
  viability, T/C: 97.2%
Second compound 0.0316 µM, first compound 0.00316 µM
  viability, T/C: 95.9%
Second compound 0.0316 µM, first compound 0.01 µM
  viability, T/C: 109%
[1]
  viability, T/C: 81.1%
[2]
  viability, T/C: 94.8%
Second compound 0.1 µM, first compound 0.000316 µM
  viability, T/C: 106%
Second compound 0.1 µM, first compound 0.001 µM
  viability, T/C: 77.2%
Second compound 0.1 µM, first compound 0.00316 µM
  viability, T/C: 85.2%
Second compound 0.1 µM, first compound 0.01 µM
  viability, T/C: 91.3%
[7]
  viability, T/C: 75.6%
[8]
  viability, T/C: 90.3%
Second compound 0.316 µM, first compound 0.000316 µM
  viability, T/C: 81.5%
Second compound 0.316 µM, first compound 0.001 µM
  viability, T/C: 89.5%
Second compound 0.316 µM, first compound 0.00316 µM
  viability, T/C: 85.3%
Second compound 0.316 µM, first compound 0.01 µM
  viability, T/C: 73.8%
[13]
  viability, T/C: 58.4%
[14]
  viability, T/C: 54.7%
Second compound 1 µM, first compound 0.000316 µM
  viability, T/C: 87.2%
Second compound 1 µM, first compound 0.001 µM
  viability, T/C: 65%
Second compound 1 µM, first compound 0.00316 µM
  viability, T/C: 50.3%
Second compound 1 µM, first compound 0.01 µM
  viability, T/C: 57.4%
[19]
  viability, T/C: 55.5%
[20]
  viability, T/C: 65%
Second compound 3.16 µM, first compound 0.000316 µM
  viability, T/C: 52.6%
Second compound 3.16 µM, first compound 0.001 µM
  viability, T/C: 43.5%
Second compound 3.16 µM, first compound 0.00316 µM
  viability, T/C: 61.8%
Second compound 3.16 µM, first compound 0.01 µM
  viability, T/C: 41%
[25]
  viability, T/C: 49.4%
[26]
  viability, T/C: 44.7%
Second compound 10 µM, first compound 0.000316 µM
  viability, T/C: 28.2%
Second compound 10 µM, first compound 0.001 µM
  viability, T/C: 30.7%
Second compound 10 µM, first compound 0.00316 µM
  viability, T/C: 37.6%
Second compound 10 µM, first compound 0.01 µM
  viability, T/C: 29.1%
[31]
  viability, T/C: 22.8%
[32]
  viability, T/C: 22.5%
